The text below walks through data of the supplement of paper PMC6045584.

Compound in assay [1]: Oc1ccc(/C=C/c2cc(O)cc(O)c2)cc1 [RESVERATROL]
Put plainly: surviving fraction relative to DMSO-only wells; higher = less growth inhibition. The note with it: exposure time: 5 days. The procedure, abridged:
(§1)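 Log-phase tumour cells were seeded at 250–500 per well in 384-well plates and, from 24 hours after seeding, exposed continuously for five days to inhibitors at 0.5, 1, 5, 10, 50, 100, 500 and 1000 nM. Surviving fraction is CellTiter-Glo luminescence normalised to the median of DMSO-only wells. Luminescence was measured after 10 minutes at room temperature, and only lines screened three times with replicate Pearson r >0.7 and median Z' >0.3 were kept.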

Compound in assay [2]: COc1cc2c(cc1O)CC[C@@H]1[C@@H]2CC[C@]2(C)[C@@H](O)CC[C@@H]12 [2-METHOXYESTRADIOL]
The assay is described as above. The note with it: exposure time: 5 days. The procedure, abridged: as §1

± gives the standard deviation of the averaged measurements.

Consider G292 BONE, for which the surviving fraction is 0.995 ± 0.051 in assay [1] (0.5 nM); 0.988 ± 0.011 in assay [1] (1 nM); 1.06 ± 0.018 in assay [1] (5 nM); 1.07 ± 0.032 in assay [1] (10 nM); 1.01 ± 0.027 in assay [1] (50 nM); 1.055 ± 0.0077 in assay [1] (100 nM). Moreover, the surviving fraction in assay [1] (500 nM) turned out to be 1.04 ± 0.017; in assay [1] (1000 nM), 1.03 ± 0.045; in assay [2] (0.5 nM), 0.988 ± 0.035; in assay [2] (1 nM), 0.956 ± 0.026; in assay [2] (5 nM) it was 1.04 ± 0.035; in assay [2] (10 nM) it was 0.994 ± 0.049. Also, the surviving fraction in assay [2] (50 nM) was 0.982 ± 0.061; in assay [2] (100 nM) it was 0.919 ± 0.029; in assay [2] (500 nM), 0.39 ± 0.013; in assay [2] (1000 nM) it was 0.234 ± 0.017.
HCC38 BREAST: the surviving fraction in assay [1] (0.5 nM) came to 1.21 ± 0.057; in assay [1] (1 nM), 1.37 ± 0.15; in assay [1] (5 nM), 1.48 ± 0.13; in assay [1] (10 nM), 1.56 ± 0.2; in assay [1] (50 nM), 1.37 ± 0.063; in assay [1] (100 nM) it was 1.2 ± 0.16. Also, the surviving fraction in assay [1] (500 nM) is 1.24 ± 0.14; in assay [1] (1000 nM), 1.18 ± 0.18; in assay [2] (0.5 nM) it was 1.28 ± 0.069; in assay [2] (1 nM) it was 1.28 ± 0.15; in assay [2] (5 nM), 1.12 ± 0.26; in assay [2] (10 nM), 1.21 ± 0.18. The surviving fraction in assay [2] (50 nM) came out at 1.35 ± 0.15; in assay [2] (100 nM), 1.02 ± 0.36; in assay [2] (500 nM) it was 0.76 ± 0.074; in assay [2] (1000 nM) it was 0.349 ± 0.028.
As for HCC70 BREAST, the surviving fraction in assay [1] (0.5 nM) was determined as 1.09 ± 0.07; in assay [1] (1 nM) it was 1.11 ± 0.11; in assay [1] (5 nM) it was 1.14 ± 0.13; in assay [1] (10 nM) it was 1.04 ± 0.049; in assay [1] (50 nM), 1.13 ± 0.066; in assay [1] (100 nM), 1.06 ± 0.054. Further, the surviving fraction in assay [1] (500 nM) was 1.11 ± 0.075; in assay [1] (1000 nM) it was 0.999 ± 0.022; in assay [2] (0.5 nM), 0.978 ± 0.05; in assay [2] (1 nM) it was 1.06 ± 0.064; in assay [2] (5 nM) it was 1.03 ± 0.062; in assay [2] (10 nM) it was 1.07 ± 0.016. Moreover, the surviving fraction in assay [2] (50 nM) stood at 1.03 ± 0.14; in assay [2] (100 nM), 1.01 ± 0.1; in assay [2] (500 nM), 0.629 ± 0.044; in assay [2] (1000 nM) it was 0.212 ± 0.043.
HMLE3 BREAST: the surviving fraction was determined as 1.01 ± 0.067 in assay [1] (0.5 nM); 1.03 ± 0.089 in assay [1] (1 nM); 1.02 ± 0.051 in assay [1] (5 nM); 1.03 ± 0.061 in assay [1] (10 nM); 1.04 ± 0.096 in assay [1] (50 nM); 1.03 ± 0.13 in assay [1] (100 nM). The surviving fraction in assay [1] (500 nM) was determined as 1.06 ± 0.055; in assay [1] (1000 nM), 1.12 ± 0.12; in assay [2] (0.5 nM) it was 0.913 ± 0.033; in assay [2] (1 nM), 0.964 ± 0.037; in assay [2] (5 nM), 0.991 ± 0.059; in assay [2] (10 nM) it was 1.05 ± 0.031. The surviving fraction was 0.987 ± 0.068 in assay [2] (50 nM), 0.887 ± 0.059 in assay [2] (100 nM), 0.937 ± 0.064 in assay [2] (500 nM) and 0.602 ± 0.035 in assay [2] (1000 nM).
Turning to HMT3552 BREAST, the surviving fraction stood at 1.06 ± 0.038 in assay [1] (0.5 nM); 1.12 ± 0.047 in assay [1] (1 nM); 1.09 ± 0.027 in assay [1] (5 nM); 1.03 ± 0.067 in assay [1] (10 nM); 1.07 ± 0.039 in assay [1] (50 nM); 1.17 ± 0.056 in assay [1] (100 nM). For the same test system, the surviving fraction in assay [1] (500 nM) is 1.12 ± 0.044; in assay [1] (1000 nM), 1.17 ± 0.055; in assay [2] (0.5 nM), 1.06 ± 0.034; in assay [2] (1 nM), 1.04 ± 0.09; in assay [2] (5 nM), 1.08 ± 0.013; in assay [2] (10 nM) it was 0.993 ± 0.015. Besides, the surviving fraction in assay [2] (50 nM) is 1.11 ± 0.029; in assay [2] (100 nM), 1.17 ± 0.066; in assay [2] (500 nM), 0.343 ± 0.025; in assay [2] (1000 nM), 0.126 ± 0.008.
In the case of HS57T BREAST, the surviving fraction in assay [1] (0.5 nM) amounted to 0.971 ± 0.038; in assay [1] (1 nM), 1.01 ± 0.073; in assay [1] (5 nM), 0.984 ± 0.11; in assay [1] (10 nM), 1.07 ± 0.028; in assay [1] (50 nM), 1.02 ± 0.034; in assay [1] (100 nM) it was 1.04 ± 0.063. Moreover, the surviving fraction in assay [1] (500 nM) came to 1.01 ± 0.047; in assay [1] (1000 nM), 0.998 ± 0.11; in assay [2] (0.5 nM), 0.919 ± 0.034; in assay [2] (1 nM) it was 0.879 ± 0.078; in assay [2] (5 nM), 0.95 ± 0.074; in assay [2] (10 nM) it was 0.965 ± 0.041. Further, the surviving fraction stood at 0.936 ± 0.044 in assay [2] (50 nM), 0.901 ± 0.054 in assay [2] (100 nM), 0.326 ± 0.017 in assay [2] (500 nM) and 0.0817 ± 0.0051 in assay [2] (1000 nM).
Take HS578T BREAST: the surviving fraction in assay [1] (0.5 nM) came out at 1.15 ± 0.15; in assay [1] (1 nM), 1.15 ± 0.036; in assay [1] (5 nM) it was 1.24 ± 0.14; in assay [1] (10 nM), 1.14 ± 0.049; in assay [1] (50 nM) it was 1.03 ± 0.074; in assay [1] (100 nM) it was 1.27 ± 0.11. Besides, the surviving fraction came to 1.17 ± 0.22 in assay [1] (500 nM); 1.12 ± 0.19 in assay [1] (1000 nM); 0.859 ± 0.075 in assay [2] (0.5 nM); 0.947 ± 0.024 in assay [2] (1 nM); 0.946 ± 0.13 in assay [2] (5 nM); 0.917 ± 0.046 in assay [2] (10 nM). The surviving fraction in assay [2] (50 nM) was found to be 1.05 ± 0.23; in assay [2] (100 nM), 1.16 ± 0.096; in assay [2] (500 nM), 0.499 ± 0.08; in assay [2] (1000 nM), 0.188 ± 0.0064.
